As a reminder, the EC50 is the concentration needed to bring the measured effect to its halfway point.

Assay [1] deals with Nucleic Acid. As to the kind of experiment: Induction of supercoiled pDesR3 DNA cleavage after 2 to 12 hrs by agarose gel electrophoresis. In kind it is nucleic-acid assay.
Assay [2] relates to Nucleic Acid. Briefly: Induction of single strand cleavage in supercoiled pDesR3 DNA at 10 uM after 3 hrs by agarose gel electrophoresis in presence of equimolar Cu(OAc)2 and EDTA. Type of assay: nucleic-acid assay.
In assay [3] the test system is Nucleic Acid. Briefly: Induction of supercoiled pDesR3 DNA cleavage at 10 uM after 2 to 12 hrs by agarose gel electrophoresis. Type of assay: nucleic-acid assay.
The subject of assay [4] is Nucleic Acid. As to the kind of experiment: Induction of single strand cleavage in supercoiled pDesR3 DNA at 10 uM after 2 to 12 hrs by agarose gel electrophoresis in presence of equimolar Cu(OAc)2. In kind it is nucleic-acid assay.
Assay [5] relates to Nucleic Acid. Briefly: Induction of single strand cleavage in supercoiled pDesR3 DNA at 10 uM after 3 hrs by agarose gel electrophoresis in presence of equimolar Cu(OAc)2 and catalase. In kind it is nucleic-acid assay.
The test system of assay [6] is Nucleic Acid. Briefly: Induction of supercoiled pDesR3 DNA cleavage assessed as half life of DNA cleavage after 2 to 12 hrs by agarose gel electrophoresis. Type of assay: nucleic-acid assay.
For assay [7], the system named is Nucleic Acid. Briefly: Induction of single strand cleavage in supercoiled pDesR3 DNA at 10 uM after 3 hrs by agarose gel electrophoresis in presence of equimolar Cu(OAc)2 and t-BuOH. Type of assay: nucleic-acid assay.
Assay [8] deals with Nucleic Acid. Briefly: Induction of single strand cleavage in supercoiled pDesR3 DNA at 10 uM after 3 hrs by agarose gel electrophoresis in presence of equimolar Cu(OAc)2 and SOD. In kind it is nucleic-acid assay.
For assay [9], the system named is Nucleic Acid. Briefly: Induction of double strand cleavage in supercoiled pDesR3 DNA at 10 uM after 2 to 12 hrs by agarose gel electrophoresis in presence of equimolar Cu(OAc)2. In kind it is nucleic-acid assay.
The test system of a further assay is MDA-MB-435. Briefly: Cytotoxicity against human MDA-MB-435 cells. Type of assay: functional, cell-based.
Assay [10] relates to Nucleic Acid. Briefly: Induction of single strand cleavage in supercoiled pDesR3 DNA at 10 uM after 3 hrs by agarose gel electrophoresis in presence of equimolar Cu(OAc)2 and NaN3. Type of assay: nucleic-acid assay.
The test system of a further assay is T47D. As to the kind of experiment: Cytotoxicity against human T47D cells. Type of assay: functional, cell-based.
Assay [11] deals with Nucleic Acid. As to the kind of experiment: Induction of single strand cleavage in laser-enhanced supercoiled pDesR3 DNA assessed as reduction in time required for single-strand break at 10 uM after 5 mins by agarose gel electrophoresis relative to control in presence of equimolar Cu(OAc)2. Details: scale not given: the % may be the effect or the level left. Type of assay: nucleic-acid assay.

The test system of assay [12] is Nucleic Acid. As to the kind of experiment: Binding affinity at calf thymus DNA at 10 uM by UV-Vis spectrophotometer. Type of assay: nucleic-acid assay. The note with it: Bos taurus.
Assay [13] has as its system Nucleic Acid. Briefly: Induction of single strand cleavage in supercoiled pDesR3 DNA at 10 uM after 3 hrs by agarose gel electrophoresis in presence of equimolar Cu(OAc)2 and DMSO. Type of assay: nucleic-acid assay.

Molecules are shown by their SMILES. The source made the active and inactive calls. The rule behind the calls is not given here.

For the compound `CC[C@H](C)[C@H]1C(=O)O[C@H]2c3cc(C)cc(O)c3C3=C(C(=O)c4c(O[C@H]5C[C@@H](O)[C@@H](O)[C@H](C)O5)cccc4C3=O)N12` [JADOMYCIN B], the half-maximal effective concentration (EC50) with Nucleic Acid [1] came to 1.7 µM; in the assay with MDA-MB-435 it was 6.89 µM; with T47D, 9.92 µM. Moreover, the result in the assay on Nucleic Acid [2], in the assay with Nucleic Acid [3], with Nucleic Acid [5], in the assay with Nucleic Acid [7], in the assay with Nucleic Acid [8] and with Nucleic Acid [9] was inactive. The outcome in the assay with Nucleic Acid [10], in the assay with Nucleic Acid [12] and in the assay with Nucleic Acid [13] was inactive. In addition, the result in the assay on Nucleic Acid [4] was Active. In addition, the T1/2 with Nucleic Acid [6] was found to be 45 min. For the same compound, the Activity in the assay on Nucleic Acid [11] worked out at 98%.

The record behind these values is ChEMBL document CHEMBL1821597, “Copper-mediated nuclease activity of jadomycin B” (Bioorg Med Chem, 2011).
